# Data from patent US20250163388A1, “METHODS FOR DERIVATION AND PROPAGATION OF AVIAN PLURIPOTENT STEM CELLS AND APPLICATIONS THEREOF” (UNIVERSITY OF SOUTHERN CALIFORNIA, priority 2022, published 2025).
# Read-outs that look alike come from different tables or passages of the source.
# B1: BMP4: a TGF-β superfamily ligand (protein, UniProt P12644 293-408, looked up)
# Bone morphogenetic protein 4: SPKHHSQRARKKNKNCRRHSLYVDFSDVGWNDWIVAPPGYQAFYCHGDCPFPLADHLNSTNHAIVQTLVNSVNSSIPKACCVPTELSAISMLYLDEYDKVVLKNYQEMVVEGCGCR
# B2: chicken LIF: chicken leukemia inhibitory factor, SEQ ID NO: 2; yeast-derived recombinant (protein, listed as Gallus gallus)
# chain: MRLIPAGVVPFVALLLLQRRPVSGRALLGTSSACPTNGLCRANVLEQTRRQVALLNATAQDLFSLYLKCQGEPFSSESDRLCSPSGIFFPPFHVNRTTERKEVMVAMYKLFAFLNASLGNITRDQEELNPMAKELLNRLHNTTKTTRGLISNLTCLLCKHYNIFQVDVSYGESSKDKSAFKKKQQGCQVLRKYVQVIAQAARVLLPHLSPA
# Key:
# Type in all cases: cell-based
# [1] = tested on: chicken blastodermal cells / chicken ESCs; assay: Derivation and self-renewal culture of chicken ESCs from EGK.X blastodermal cells; details: for emergence of morphologically undifferentiated ESC colonies: EGK.X blastodermal cells from Rhode Island Red eggs, single supplement, FIG. 8A
# Description: (§1) Freshly laid avian fertile eggs at EGK.X-XII stages were kept at 16° C. before extraction. To harvest cells from yolk, a filter paper-based method was applied. Filter paper with a hole at center was placed on top of the embryo. The outer edge of the filter paper was cut together with the vitelline membranes. Embryo were then released from yolk together with the filter paper and washed in PBS solution. Next, embryo was transferred into a 15 ml tube free of the paper ring and dissociated by pipetting inside N2B27 medium. Dissociated cells were cultured in tissue plates coated with irradiated mouse embryonic fibroblast (MEF) cells as feeder layer. Basal medium used for routine ESC maintenance was N2B27 medium composed of Dulbecco's Modified Eagle Medium/Nutrient Mixture F-12 (DMEM/F12):Neuralbasal (1:1) plus 0.5×N2, 0.5×B27 supplement and 20 μg/ml ovotransferrin with the addition of 1× penicillin-streptomycin. Avian ESC self-renewal was kept with 2.5 μM IWR-1, 2 μM Gö6983, 2 μM SB431542 plus chicken LIF (10 ng/ml for ESCs and 40 ng/ml for other avian ESCs). ESCs were cultured at 38° C. in 5% CO2 with daily medium change. To passage, TrypLE was used to incubate the cells for 5 min and neutralized with basal medium in triple amount. Cells were handled with 5 ml pipette all the time to avoid dissociation into singles. Cells can be frozen in Cellbanker 2 and stored at −150° C.
# avian ESCs [2] = assay: Self-renewal of avian ESCs (species not specified)
# Description: as §1
# [3] = tested on: quail blastodermal cells / quail ESCs; assay: Derivation and self-renewal culture of quail ESCs
# Description: We tested whether ESCs could be derived from other avian species in OT/2i. We isolated blastodermal cells from fertilized pheasant, duck and turkey eggs and cultured them in OT/2i. […] We examined whether blocking signaling pathways involved in cardiomyocyte differentiation from pluripotent stem cells could improve ESC self-renewal.
# as §1, with “ESCs were cultured at 38° C. in 5% CO2 with daily medium change. To passage, TrypLE was used to incubate the cells for 5 min and neutralized with basal medium in triple amount. Cells were handled with 5 ml pipette all the time to avoid dissociation into singles. Cells can be frozen in Cellbanker 2 and stored at −150° C.” left out
# avian ESCs [4] = assay: Induction of primordial germ cells (PGCs) from avian ESCs; details: data not shown
# Excerpt: Next, we assessed the potential of chicken ESCs to differentiate into the germ cell lineage. We generated EBs from chicken ESCs and examined the expression of germ cell markers including Dazl, Cvh, Cxcr4, Sycp3 and Stra8. […] To further investigate germ cell differentiation potential of chicken ESCs, we examined the expression of key primordial germ cell (PGC) marker, DAZL by immunofluorescence staining in both undifferentiated chicken ESCs and differentiated EBs. […] A subset of cells (1-3%) in day 3-4 EBs stained positive for DAZL (FIG. 6C). DAZL expression could also be detected inside goose ESC-derived EBs (FIG. 6C).
# ostrich ESCs = assay: Derivation and self-renewal culture of ostrich ESCs
# Description: as §1
molecule,measurement,setting,value
"NC(=O)c1ccc(-c2nc(-c3ccc4c(c3)OCO4)c(-c3ccccn3)[nH]2)cc1 [SB431542, 4-[4-(2H-1,3-Benzodioxol-5-yl)-5-(pyridin-2-yl)-1H-imidazol-2-yl]benzamide]",chicken ESC self-renewal,[1],stabilize and proliferate chicken ESCs in long-term passages
same,self-renewal of avian ESCs,avian ESCs [2],does not promote the self-renewal
human ortholog: human ortholog of ovotransferrin,chicken ESC self-renewal,[1],could not be replaced
O=C(Nc1cccc2cccnc12)c1ccc(N2C(=O)[C@@H]3[C@H](C2=O)[C@@H]2C=C[C@H]3C2)cc1 [IWR-1],emergence of morphologically undifferentiated ESC colonies,[1],Morphologically undifferentiated ESC colonies emerged
human LIF: human leukemia inhibitory factor,quail ESC derivation and long-term self-renewal,[3],cannot be substituted
COc1ccc2c(c1)c(C1=C(c3c[nH]c4ccccc34)C(=O)NC1=O)cn2CCCN(C)C [Gö6983],emergence of morphologically undifferentiated ESC colonies,[1],Morphologically undifferentiated ESC colonies emerged
B1,induction of PGCs,avian ESCs [4],did not respond
B2,quail ESC derivation and long-term self-renewal,[3],is necessary
same,chicken ESC self-renewal,[1],stabilize and proliferate chicken ESCs in long-term passages
same,"ostrich ESC derivation, maintenance and differentiation",ostrich ESCs,induced differentiation
same,"ostrich ESC derivation, maintenance and differentiation",ostrich ESCs; listed as LIF,differentiating effect
